Each structure is given as a SMILES string. Counter-ions that a name gives are not always drawn.

The target in the first assay is T1, wild type human RORγt LBD (Homo sapiens, UniProt P51449).
T1 construct: expressed in transfected cells; host or cells: HEK293T
T1 sequence (P51449 258-518): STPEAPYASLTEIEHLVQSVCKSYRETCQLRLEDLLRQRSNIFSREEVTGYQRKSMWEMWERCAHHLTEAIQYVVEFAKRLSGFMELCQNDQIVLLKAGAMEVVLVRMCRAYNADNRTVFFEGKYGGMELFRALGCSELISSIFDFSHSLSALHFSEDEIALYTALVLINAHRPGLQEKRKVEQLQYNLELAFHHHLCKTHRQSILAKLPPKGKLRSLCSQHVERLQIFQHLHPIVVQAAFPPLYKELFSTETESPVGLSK
In words: RORγt (LBD) Reporter Assay (GAL4-luciferase, HEK293T cells). Format: cell-based. Conditions: 6 µM compound concentration; HEK293T cells; 6 µM.
For the compound `COc1nc2ccc(C(c3ccc(C)nc3C)(c3cnnn3C)N(C)C)cc2c(Cl)c1Cc1ccc(C(F)(F)F)cc1` (single isomer, unassigned) [Example 122c, 1-(4-Chloro-2-methoxy-3-(4-(trifluoromethyl)benzyl)quinolin-6-yl)-1-(2,6-dimethylpyridin-3-yl)-N,N-dimethyl-1-(1-methyl-1H-1,2,3-triazol-5-yl)methanamine•TFA], the “RORγt (LBD) Reporter Assay, % inhibition @ 6 µM” value stood at 99%.
For the compound `COc1nc2ccc(C(O)(c3oc(C)nc3C)c3cnnn3C)cc2c(Cl)c1Cc1ccc(C(F)(F)F)cc1` (single isomer, unassigned) [Example 156c, (4-chloro-2-methoxy-3-(4-(trifluoromethyl)benzyl)quinolin-6-yl)(2,4-dimethylozazol-5-yl)(1-methyl-1H-1,2,3-triazol-5-yl)methanol], the “RORγt (LBD) Reporter Assay, % inhibition @ 6 µM” value is recorded as 99%.

The same assay, now with this note: HEK293T cells.
Turning to `CCN(CC)c1nc2ccc(C(O)(c3ccc(Cl)cc3)c3cncn3C)cc2c(C#N)c1Cc1ccc(-n2cccn2)cc1` (single isomer, unassigned) [Example 154b, 3-(4-(1H-pyrazol-1-yl)benzyl)-6-((4-chlorophenyl)(hydroxy)(1-methyl-1H-imidazol-5-yl)methyl)-2-(diethylamino)quinoline4-carbonitrile], the 50% inhibitory concentration (IC50) is 140 nM.
Regarding `Cn1cncc1C(O)(c1ccc(Cl)cc1)c1ccc2nc(Cl)c(Cc3ccc(C(F)(F)F)cc3)c(Cl)c2c1` (stereo not shown) [Example 155, (4-chlorophenyl)(2,4-dichloro-3-(4-(trifluoromethyl)benzyl)quinolin-6-yl)(1-methyl-1H-imidazol-5-yl)methanol•TFA], half-maximal inhibition (IC50) required 160 nM.

The same assay, now with this note: HEK293T cells; value after the comma with ∼, > or < could not be included in the average.
As to `COc1nc2ccc(C(O)(c3cnnn3C)c3cnc(C)n3C)cc2c(C#N)c1Cc1ccc(C(F)(F)F)nc1` (stereo not shown) [Example 44a, 6-((1,2-Dimethyl-1H-imidazol-5-yl)(hydroxy)(1-methyl-1H-1,2,3-triazol-5-yl)methyl)-2-methoxy-3-((6-(trifluoromethyl)pyridin-3-yl)methyl)quinoline-4-carbonitrile], the IC50 stood at 7.6 nM.

The same assay, now with this note: HEK-293T, read-out: RORγt (LBD) Reporter Assay, % inhibition @ 6 µM, 6 µM compound concentration.
As for `COc1nc2ccc(C(O)(c3ccc(C)nc3C)c3cnnn3C)cc2c(Cl)c1Cc1ccc(C(F)(F)F)nc1` (stereo not shown) [Example 40a, (4-Chloro-2-methoxy-3-((6-(trifluoromethyl)pyridin-3-yl)methyl)quinolin-6-yl)(2,6-dimethylpyridin-3-yl)(1-methyl-1H-1,2,3-triazol-5-yl)methanol], the inhibition at 6 µM stood at 98%.
With `COc1nc2ccc(C(O)(c3cnnn3C)c3cnc(C)n3C)cc2c(C#N)c1Cc1ccc(C(F)(F)F)nc1` (stereo not shown) [Example 44a, 6-((1,2-Dimethyl-1H-imidazol-5-yl)(hydroxy)(1-methyl-1H-1,2,3-triazol-5-yl)methyl)-2-methoxy-3-((6-(trifluoromethyl)pyridin-3-yl)methyl)quinoline-4-carbonitrile], the inhibition at 6 µM is 97%.

The assay is the same for the next values; noted with them: HEK-293T, read-out: RORγt (LBD) Reporter Assay, % inhibition @ 6 µM, 6 µM compound concentration; HEK293T cells.
On to `COc1nc2ccc(C(O)(c3oc(C)nc3C)c3cnnn3C)cc2c(Cl)c1Cc1ccc(C(F)(F)F)cc1` (single isomer, unassigned) [Example 156b, (4-chloro-2-methoxy-3-(4-(trifluoromethyl)benzyl)quinolin-6-yl)(2,4-dimethylozazol-5-yl)(1-methyl-1H-1,2,3-triazol-5-yl)methanol], for which the inhibition at 6 µM turned out to be 98%.
Take `Cn1cncc1C(O)(c1ccc(Cl)cc1)c1ccc2nc(Cl)c(Cc3ccc(C(F)(F)F)cc3)c(Cl)c2c1` (stereo not shown) [Example 155, (4-chlorophenyl)(2,4-dichloro-3-(4-(trifluoromethyl)benzyl)quinolin-6-yl)(1-methyl-1H-imidazol-5-yl)methanol•TFA]: the inhibition at 6 µM is 88%.

The next assay concerns the target T2, wild type human RORγt ligand binding domain (RORyt LBD) (Homo sapiens, UniProt P51449).
T2 construct: His-tag (N); TurboTEV protease cleavage site (ENLYFQG) (N); made in house; host or cells: E. coli (pHIS1, modified pET vector)
T2 sequence (P51449 258-518): T1 sequence (P51449 258-518)
Kind of assay: RORγt ThermoFluor assay (thermal shift, binding affinity KD).
Conditions: not given
For the compound `COc1nc2ccc(C(O)(c3ccc(C(F)(F)F)nc3)c3cnnn3C)cc2c(Cl)c1Cc1ccc(C(F)(F)F)cc1` (racemic) [Example 75a, (4-Chloro-2-methoxy-3-(4-(trifluoromethyl)benzyl)quinolin-6-yl)(1-methyl-1H-1,2,3-triazol-5-yl)(6-(trifluoromethyl)pyridin-3-yl)methanol], the dissociation constant (Kd) stood at 3.3 nM.
As to `COc1nc2ccc(C(O)(c3cnnn3C)C3CN(C)C3)cc2c(Cl)c1Cc1ccc(C(F)(F)F)cc1` (racemic) [Example 90a, (4-Chloro-2-methoxy-3-(4-(trifluoromethyl)benzyl)quinolin-6-yl)(1-methyl-1H-1,2,3-triazol-5-yl)(1-methylazetidin-3-yl)methanol], the dissociation constant Kd was 5 nM.
Still for that read-out and setting: with `Cc1nc2ccc(C(O)(c3ccc(C(F)(F)F)nc3)c3cncn3C)cc2c(Cl)c1Cc1ccc(C(F)(F)F)cc1` (single isomer, unassigned) [Example 26b, (4-Chloro-2-methyl-3-(4-(trifluoromethyl)benzyl)quinolin-6-yl)(1-methyl-1H-imidazol-5-yl)(6-(trifluoromethyl)pyridin-3-yl)methanol] the figure was 15 nM.
On to `Cc1nc2ccc(C(O)(c3ccc(C(F)(F)F)nc3)c3cncn3C)cc2c(Cl)c1Cc1ccc(C(F)(F)F)cc1` (single isomer, unassigned) [Example 26c, (4-Chloro-2-methyl-3-(4-(trifluoromethyl)benzyl)quinolin-6-yl)(1-methyl-1H-imidazol-5-yl)(6-(trifluoromethyl)pyridin-3-yl)methanol], for which the Kd was 0.77 nM.
Turning to `CC(=O)N1CCC(C(O)(c2ccccc2)c2ccc3nc(C)c(Cc4ccc(C(F)(F)F)cc4)c(Cl)c3c2)CC1` (single isomer, unassigned) [Example 27b, 1-(4-((4-Chloro-2-methyl-3-(4-(trifluoromethyl)benzyl)quinolin-6-yl)(hydroxy)(phenyl)methyl)piperidin-1-yl)ethanone], the Kd turned out to be 0.63 nM.
Same read-out and setting: with `CC(=O)N1CCC(C(O)(c2ccccc2)c2ccc3nc(C)c(Cc4ccc(C(F)(F)F)cc4)c(Cl)c3c2)CC1` (single isomer, unassigned) [Example 27c, 1-(4-((4-Chloro-2-methyl-3-(4-(trifluoromethyl)benzyl)quinolin-6-yl)(hydroxy)(phenyl)methyl)piperidin-1-yl)ethanone] the figure was 14 nM.
Take `Cc1ccc(C(O)(c2ccc3nc(C)c(Cc4ccc(C(F)(F)F)cc4)c(Cl)c3c2)c2cnnn2C)c(C)n1` (single isomer, unassigned) [Example 28b, (4-Chloro-2-methyl-3-(4-(trifluoromethyl)benzyl)quinolin-6-yl)(2,6-dimethylpyridin-3-yl)(1-methyl-1H-1,2,3-triazol-5-yl)methanol]: the dissociation constant Kd worked out at 160 nM.
As for `Cc1ccc(C(O)(c2ccc3nc(C)c(Cc4ccc(C(F)(F)F)cc4)c(Cl)c3c2)c2cnnn2C)c(C)n1` (single isomer, unassigned) [Example 28c, (4-Chloro-2-methyl-3-(4-(trifluoromethyl)benzyl)quinolin-6-yl)(2,6-dimethylpyridin-3-yl)(1-methyl-1H-1,2,3-triazol-5-yl)methanol], the dissociation constant (Kd) amounted to 0.12 nM.
The same measure, in the same setting: with `Cc1nc2ccc(C(O)(c3cnnn3C)c3cnc(C)n3C)cc2c(Cl)c1Cc1ccc(C(F)(F)F)cc1` (single isomer, unassigned) [Example 29b, (4-Chloro-2-methyl-3-(4-(trifluoromethyl)benzyl)quinolin-6-yl)(1,2-dimethyl-1H-imidazol-5-yl)(1-methyl-1H-1,2,3-triazol-5-yl)methanol] the figure was 0.04 nM.
Same read-out and setting: for `Cc1nc2ccc(C(O)(c3cnnn3C)c3cnc(C)n3C)cc2c(Cl)c1Cc1ccc(C(F)(F)F)cc1` (single isomer, unassigned) [Example 29c, (4-Chloro-2-methyl-3-(4-(trifluoromethyl)benzyl)quinolin-6-yl)(1,2-dimethyl-1H-imidazol-5-yl)(1-methyl-1H-1,2,3-triazol-5-yl)methanol] the value was 0.15 nM; for `Cc1nc2ccc(C(O)(c3ccnc(C(F)(F)F)c3)c3cncn3C)cc2c(Cl)c1Cc1ccc(C(F)(F)F)cc1` (single isomer, unassigned) [Example 30b, (4-Chloro-2-methyl-3-(4-(trifluoromethyl)benzyl)quinolin-6-yl)(1-methyl-1H-imidazol-5-yl)(2-(trifluoromethyl)pyridin-4-yl)methanol], 300 nM; for `Cc1nc2ccc(C(O)(c3ccnc(C(F)(F)F)c3)c3cncn3C)cc2c(Cl)c1Cc1ccc(C(F)(F)F)cc1` (single isomer, unassigned) [Example 30c, (4-Chloro-2-methyl-3-(4-(trifluoromethyl)benzyl)quinolin-6-yl)(1-methyl-1H-imidazol-5-yl)(2-(trifluoromethyl)pyridin-4-yl)methanol], 0.092 nM.
Consider `CC(=O)N1CC(C(O)(c2ccc3nc(C)c(Cc4ccc(C(F)(F)F)cc4)c(Cl)c3c2)c2cnnn2C)C1` (single isomer, unassigned) [Example 32b, 1-(3-((4-Chloro-2-methyl-3-(4-(trifluoromethyl)benzyl)quinolin-6-yl)(hydroxy)(1-methyl-1H-1,2,3-triazol-5-yl)methyl)azetidin-1-yl)ethanone], for which the Kd was determined as 0.86 nM.
On the same count and under the same terms, for `CC(=O)N1CC(C(O)(c2ccc3nc(C)c(Cc4ccc(C(F)(F)F)cc4)c(Cl)c3c2)c2cnnn2C)C1` (single isomer, unassigned) [Example 32c, 1-(3-((4-Chloro-2-methyl-3-(4-(trifluoromethyl)benzyl)quinolin-6-yl)(hydroxy)(1-methyl-1H-1,2,3-triazol-5-yl)methyl)azetidin-1-yl)ethanone] the value was 1.3 nM.
In the case of `CCc1nc2ccc(C(O)(c3cnnn3C)C3CCOCC3)cc2c(Cl)c1Cc1ccc(C(F)(F)F)cc1` (single isomer, unassigned) [Example 33b, (4-Chloro-2-ethyl-3-(4-(trifluoromethyl)benzyl)quinolin-6-yl)(1-methyl-1H-1,2,3-triazol-5-yl)(tetrahydro-2H-pyran-4-yl)methanol], the dissociation constant Kd turned out to be 0.08 nM.
Take `CCc1nc2ccc(C(O)(c3cnnn3C)C3CCOCC3)cc2c(Cl)c1Cc1ccc(C(F)(F)F)cc1` (single isomer, unassigned) [Example 33c, (4-Chloro-2-ethyl-3-(4-(trifluoromethyl)benzyl)quinolin-6-yl)(1-methyl-1H-1,2,3-triazol-5-yl)(tetrahydro-2H-pyran-4-yl)methanol]: the dissociation constant (Kd) came out at 0.84 nM.

Broadly, the IC50 is the concentration that gives 50% inhibition. A high value points to weaker potency in that assay. By Kd is commonly meant the free concentration of one partner at which half of the binding sites on the other are occupied at equilibrium, for simple one-to-one binding.

Source of the values: EP3057951B1, “METHYLENE LINKED QUINOLINYL MODULATORS OF ROR-GAMMA-T” (Janssen Pharmaceutica NV, priority 2013, dated 2015).
